Experimental data from ChEMBL document CHEMBL4251736, “Discovery of Novel Diarylpyrimidine Derivatives as Potent HIV-1 NNRTIs Targeting the "NNRTI Adjacent" Binding Site” (ACS Med Chem Lett, 2018).
The source made the active and inactive calls. No cut-off for these calls is given here.

Experiments:
[1] = tested on: Human immunodeficiency virus 1; assay: Antiviral activity against HIV1 harboring reverse transcriptase K103N mutant infected in human MT4 cells assessed as inhibition of viral replication after 5 days by MTT assay; assay type: functional, organism-based; conditions: Human immunodeficiency virus 1, MT4, 120 h
[2] = tested on: Human immunodeficiency virus 2; assay: Antiviral activity against HIV2 ROD infected in human MT4 cells assessed as inhibition of virus-induced cytopathic effect after 5 days by MTT assay; assay type: functional, organism-based; conditions: ISOLATE ROD
[3] = molecular target: Human immunodeficiency virus type 1 reverse transcriptase (Human immunodeficiency virus 1, UniProt Q72547); assay: Inhibition of recombinant wild type HIV1 reverse transcriptase assessed as decrease in biotin-dUTP incorporation using DIG-labeled dUTP/biotin-labeled dUTP and dTTP as template and viral nucleotides after 1 hr by ELISA
[4] = tested on: Human immunodeficiency virus 1; assay: Antiviral activity against wild type HIV1 3B infected in human MT4 cells assessed as inhibition of virus-induced cytopathic effect after 5 days by MTT assay; assay type: functional, organism-based; conditions: Human immunodeficiency virus 1, 3B, MT4, 120 h
[5] = Selectivity index, ratio of CC50 for human MT4 cells to EC50 for wild type HIV1 3B; assay type: toxicity; conditions: read-out: Ratio CC50/EC50
[6] = Cytotoxicity against human MT4 cells assessed as decrease in cell viability after 5 days by MTT assay; assay type: cell-based
[7] = tested on: Human immunodeficiency virus 1; assay: Fold resistance, ratio of EC50 for HIV1 harboring reverse transcriptase K103N mutant infected in human MT4 cells to EC50 for wild type HIV1 3B infected in human MT4 cells; assay type: functional
[8] = tested on: Human immunodeficiency virus 1; assay: Antiviral activity against HIV1 harboring reverse transcriptase E138K mutant infected in human MT4 cells assessed as inhibition of viral replication after 5 days by MTT assay; assay type: functional, organism-based; conditions: for EC50: Human immunodeficiency virus 1, MT4, 120 h
[9] = tested on: Human immunodeficiency virus 1; assay: Potency index, ratio of etravirine EC50 to compound EC50 for HIV1 harboring reverse transcriptase K103N mutant infected in human MT4 cells; assay type: functional
[10] = tested on: Human immunodeficiency virus 1; assay: Antiviral activity against HIV1 RES056 harboring reverse transcriptase K103N/Y181C double mutant infected in human MT4 cells assessed as inhibition of viral replication after 5 days by MTT assay; assay type: functional, organism-based; conditions: Human immunodeficiency virus 1, RES056, MT4, 120 h
[11] = tested on: Human immunodeficiency virus 1; assay: Antiviral activity against HIV1 harboring reverse transcriptase Y188L mutant infected in human MT4 cells assessed as inhibition of viral replication after 5 days by MTT assay; assay type: functional, organism-based
[12] = tested on: Human immunodeficiency virus 1; assay: Antiviral activity against HIV1 harboring reverse transcriptase F227L/V106A double mutant infected in human MT4 cells assessed as inhibition of viral replication after 5 days by MTT assay; assay type: functional, organism-based; conditions: Human immunodeficiency virus 1, MT4, 120 h
[13] = tested on: Human immunodeficiency virus 1; assay: Antiviral activity against HIV1 harboring reverse transcriptase Y181C mutant infected in human MT4 cells assessed as inhibition of viral replication after 5 days by MTT assay; assay type: functional, organism-based; conditions: Human immunodeficiency virus 1, MT4, 120 h
[14] = tested on: Human immunodeficiency virus 1; assay: Potency index, ratio of etravirine EC50 to compound EC50 for wild type HIV1 3B infected in human MT4 cells; assay type: functional
[15] = tested on: Human immunodeficiency virus 1; assay: Antiviral activity against HIV1 harboring reverse transcriptase L100I mutant infected in human MT4 cells assessed as inhibition of viral replication after 5 days by MTT assay; assay type: functional, organism-based; conditions: Human immunodeficiency virus 1, MT4, 120 h
[16] = tested on: Human immunodeficiency virus 1; assay: Potency index, ratio of etravirine EC50 to compound EC50 for HIV1 harboring reverse transcriptase Y181C mutant infected in human MT4 cells; assay type: functional
[17] = tested on: Human immunodeficiency virus 1; assay: Potency index, ratio of etravirine EC50 to compound EC50 for HIV1 harboring reverse transcriptase L100I mutant infected in human MT4 cells; assay type: functional
[18] = tested on: Human immunodeficiency virus 1; assay: Potency index, ratio of etravirine EC50 to compound EC50 for HIV1 harboring reverse transcriptase Y188L mutant infected in human MT4 cells; assay type: functional
[19] = tested on: Human immunodeficiency virus 1; assay: Potency index, ratio of etravirine EC50 to compound EC50 for HIV1 harboring reverse transcriptase E138K mutant infected in human MT4 cells; assay type: functional

| Compound | EC50 [1] | inhibition [2] | IC50 [3] | EC50 [4] | selectivity ratio [5] | CC50 at 120 h [6] | EC50 [8] | other results |
| --- | --- | --- | --- | --- | --- | --- | --- | --- |
| Cc1cc(C#N)cc(C)c1Oc1nc(Nc2ccc(C#N)cc2)ncc1SCC(=O)N1CCN(C(=O)OC(C)(C)C)CC1 | – | inactive | 13 to 863 nM | 88.5 nM | 152 to 15400 | 5100 to 149000 nM | – | – |
| Cc1cc(C#N)cc(C)c1Oc1nc(Nc2ccc(C#N)cc2)ncc1SCC(=O)NCCN1CCN(C(=O)OC(C)(C)C)CC1 | 1.4 to 44.9 nM | inactive | 13 to 863 nM | 32.6 nM | 152 to 15400 | 5100 to 149000 nM | 6 to 157 nM | Ratio EC50 [7]: 0.4 - 1.9 |
| Cc1cc(C#N)cc(C)c1Oc1nc(Nc2ccc(C#N)cc2)ncc1SCC(=O)N1CC[C@H](NC(=O)OC(C)(C)C)C1 | – | inactive | 13 to 863 nM | 33.9 nM | 152 to 15400 | 5100 to 149000 nM | – | – |
| COC(=O)CCSc1cnc(Nc2ccc(C#N)cc2)nc1Oc1c(C)cc(C#N)cc1C | – | inactive | 13 to 863 nM | 60.2 nM | 152 to 15400 | 5100 to 149000 nM | – | – |
| O=C1Nc2ccc(Cl)cc2[C@@](C#CC2CC2)(C(F)(F)F)O1 [EFAVIRENZ] | 81 nM | – | – | – | – | – | – | – |
| C=CCNC(=O)CSc1cnc(Nc2ccc(C#N)cc2)nc1Oc1c(C)cc(C#N)cc1C | 1.4 to 8.3 nM | inactive | 13 to 863 nM | 2.4 to 3.8 nM | 152 to 15400 | 5100 to 149000 nM | 6 to 34.7 nM | Ratio EC50 [9]: 1.3 - 2.3 |
| C#CCNC(=O)CSc1cnc(Nc2ccc(C#N)cc2)nc1Oc1c(C)cc(C#N)cc1C | 1.4 to 8.3 nM | inactive | 23 nM | 2.4 nM | 152 to 15400 | 5100 to 149000 nM | 6 to 34.7 nM | Ratio EC50 [9]: 1.3 - 2.3; EC50 [10]: > 100 nM; inhibition [11]: Active; EC50 [12]: > 100 nM; EC50 [13]: 11.1 to 13.8 nM; Ratio EC50 [14]: 1.6; EC50 [15]: 7.7 nM |
| Cc1cc(C#N)cc(C)c1Oc1nc(Nc2ccc(C#N)cc2)ncc1SCC(N)=O | 1.4 to 44.9 nM | inactive | 13 to 863 nM | 2.4 to 216 nM | 152 to 15400 | 5100 to 149000 nM | 6 to 34.7 nM | Ratio EC50 [7]: 0.4 - 1.9 |
| Cc1cc(C#N)cc(C)c1Oc1nc(Nc2ccc(C#N)cc2)ncc1SCC(=O)NC1CC1 | 1.4 to 8.3 nM | inactive | 21 nM | 2.4 nM | 152 to 15400 | 5100 to 149000 nM | 6 to 34.7 nM | Ratio EC50 [9]: 1.3 - 2.3; EC50 [10]: > 100 nM; inhibition [11]: Active; EC50 [12]: > 100 nM; EC50 [13]: 11.1 to 13.8 nM; Ratio EC50 [14]: 1.6 |
| Cc1cc(C#N)cc(C)c1Oc1nc(Nc2ccc(C#N)cc2)ncc1SCC(=O)N1CCSCC1 | 1.4 to 44.9 nM | inactive | 13 to 863 nM | 38.3 nM | 152 to 15400 | 5100 to 149000 nM | 6 to 157 nM | Ratio EC50 [7]: 0.4 - 1.9 |
| Cc1cc(C#N)cc(C)c1Oc1nc(Nc2ccc(C#N)cc2)ncc1SCC(=O)NCC1CC1 | – | inactive | 13 to 863 nM | 3.8 nM | 152 to 15400 | 5100 to 149000 nM | – | – |
| Cc1cc(C#N)cc(C)c1Oc1nc(Nc2ccc(C#N)cc2)ncc1SCC(=O)NCC1CCCO1 (stereo unspecified) | 1.4 to 8.3 nM | inactive | 13 to 863 nM | < 10 nM | 152 to 15400 | 5100 to 149000 nM | 6 to 34.7 nM | – |
| Cc1cc(C#N)cc(C)c1Oc1nc(Nc2ccc(C#N)cc2)ncc1SCC(=O)Nc1ccc(S(C)(=O)=O)cc1 | 1.4 to 8.3 nM | inactive | 13 to 863 nM | < 10 nM | 152 to 15400 | 5100 to 149000 nM | 6 to 34.7 nM | – |
| Cc1ccnc2c1NC(=O)c1cccnc1N2C1CC1 | – | – | – | – | – | – | – | inhibition [8]: Active |
| Cc1cc(C#N)cc(C)c1Oc1nc(Nc2ccc(C#N)cc2)ncc1SCC(=O)C(=O)O | – | inactive | 13 to 863 nM | 2.4 to 216 nM | 152 to 15400 | 5100 to 149000 nM | – | – |
| Cc1cc(C#N)cc(C)c1Oc1nc(Nc2ccc(C#N)cc2)ncc1SCC(=O)NCc1ccc(O)cc1 | 1.4 to 8.3 nM | inactive | 13 to 863 nM | < 10 nM | 152 to 15400 | 5100 to 149000 nM | 6 to 34.7 nM | – |
| COC(=O)CSc1cnc(Nc2ccc(C#N)cc2)nc1Oc1c(C)cc(C#N)cc1C | – | inactive | 13 to 863 nM | 65.9 nM | 152 to 15400 | 5100 to 149000 nM | – | – |
| COC(=O)CCS(=O)(=O)c1cnc(Nc2ccc(C#N)cc2)nc1Oc1c(C)cc(C#N)cc1C | – | inactive | 13 to 863 nM | 1560 nM | 9 | 5100 to 149000 nM | – | – |
| Cc1cc(C#N)cc(C)c1Oc1nc(Nc2ccc(C#N)cc2)ncc1SCC(=O)NC1CCN(C(=O)OC(C)(C)C)CC1 | 1.4 to 44.9 nM | inactive | 13 to 863 nM | < 10 nM | 152 to 15400 | 5100 to 149000 nM | 6 to 157 nM | Ratio EC50 [7]: 0.4 - 1.9 |
| Cc1cc(C#N)cc(C)c1Oc1nc(Nc2ccc(C#N)cc2)ncc1SCC(=O)NCCN1CCOCC1 | 1.4 to 8.3 nM | inactive | 13 to 863 nM | 2.6 to 6.2 nM | 152 to 15400 | 5100 to 149000 nM | 6 to 34.7 nM | Ratio EC50 [9]: 1.3 - 2.3 |
| Cc1cc(C#N)cc(C)c1Oc1nc(Nc2ccc(C#N)cc2)ncc1SCC(=O)NCCCN1CCOCC1 | 1.4 nM | inactive | 84 to 86 nM | 2.6 nM | 10000 | 27200 nM | 6 nM | Ratio EC50 [9]: 1.5 - 3; Ratio EC50 [16]: 1.5 - 3; Ratio EC50 [17]: 1.5 - 3; EC50 [10]: > 100 nM; EC50 ([11]; Human immunodeficiency virus 1, MT4, 120 h): 16.2 nM; EC50 [12]: > 100 nM; EC50 [13]: 11.6 nM; Ratio EC50 [14]: 1.5; EC50 [15]: 6.5 nM; Ratio EC50 [18]: 1.5 - 3; Ratio EC50 [19]: 1.5 - 3 |
| COC(=O)CS(=O)(=O)c1cnc(Nc2ccc(C#N)cc2)nc1Oc1c(C)cc(C#N)cc1C | – | inactive | 13 to 863 nM | 68.8 nM | 152 to 15400 | 5100 to 149000 nM | – | – |
| COCCNC(=O)CSc1cnc(Nc2ccc(C#N)cc2)nc1Oc1c(C)cc(C#N)cc1C | 1.4 to 8.3 nM | inactive | 26 nM | 3.8 nM | 152 to 15400 | 5100 to 149000 nM | 6 to 34.7 nM | Ratio EC50 [9]: 1.3 - 2.3; EC50 [10]: > 100 nM; inhibition [11]: Active; EC50 [12]: > 100 nM |
| Cc1cn([C@H]2C[C@H](N=[N+]=[N-])[C@@H](CO)O2)c(=O)[nH]c1=O [ZIDOVUDINE] | – | – | – | – | – | – | 38.6 nM | EC50 [13]: 14.1 nM; EC50 [15]: 8.3 nM |
